Experimental data reported in ChEMBL document CHEMBL2384947, “27-Nor-Δ(4)-dafachronic acid is a synthetic ligand of Caenorhabditis elegans DAF-12 receptor” (Bioorg Med Chem Lett, 2013).
The source made the active and inactive calls. The calls are words filed in the database; no cut-off is given here.

Key:
Caenorhabditis elegans [1] = test: Activation of DAF-12 receptor in Caenorhabditis elegans RG1228 harboring daf-9(rh50) mutant assessed as mig phenotype rescue at 250 nM after 3 days
Caenorhabditis elegans [2] = test: Reduction in resistance to H2O2-induced oxidative stress in wild type Caenorhabditis elegans N2 assessed as survival at 250 nM incubated 1 hr prior to H2O2 challenge relative to control; format: functional, organism-based
[3] = (§1) Transactivation of Caenorhabditis elegans DAF-12 receptor LBD transfected in HEK293 cells co-expressing Gal4-DBD after 20 hrs by luciferase reporter gene assay; format: cell-based; settings: HEK293, 20 h
HEK293 = test: as §1; format: cell-based
Caenorhabditis elegans [4] = test: Reduction in resistance to H2O2-induced oxidative stress in Caenorhabditis elegans RG1228 harboring daf-9(rh50) mutant assessed as survival at 250 nM incubated 1 hr prior to H2O2 challenge; format: functional, organism-based

Activity (Caenorhabditis elegans [1]): Active | EC50 [3]: 10 µM
SMILES: C[C@H](CCCCC(=O)O)[C@H]1CC[C@H]2[C@@H]3CCC4=CC(=O)CC[C@]4(C)[C@H]3CC[C@]12C
Activity (Caenorhabditis elegans [2]): Active | Activity (HEK293): Dose-dependent effect | Activity (Caenorhabditis elegans [4]): Active
